Assay results published in publication PMC4413198, “Inhibition of N-Type Calcium Channels by Fluorophenoxyanilide Derivatives” (Marine Drugs, 2015).
Where “and” joins values, the source holds several entries; their conditions need not be identical. Equal values may be shown once. Read-outs that look alike come from different tables or passages of the source.

Experiments:
[1] = parameters: method as in earlier work; conditions: primary endpoint; cited from earlier work
human Cav2.2 channels [2] = target: T1, human Cav2.2 channels (Homo sapiens, UniProt Q00975); experiment: SH-SY5Y neuroblastoma FLIPR assay of KCl-evoked calcium responses in presence of nifedipine; type: cell-based; conditions: for inhibition at 300 µM: SH-SY5Y, read-out: % Max inhibition; for extent of inhibition of KCl-induced Ca2+ responses: in words
human Cav2.2 channels [3] = target: T1, human Cav2.2 channels; conditions: HEK293 cells stably expressing human Cav2.2; n = 4–7; personal communication ref 40; read-out: IC50, block of calcium currents; cited from earlier work
N-type channel = conditions: cited from earlier work
[4] = SH-SY5Y cells, 90 mM KCl and 5 mM CaCl2, 10 µM nifedipine, 5 min pre-treatment
[5] = SH-SY5Y cells, 90 mM KCl and 5 mM CaCl2, 10 µM nifedipine, 5 min pre-treatment, read-out: IC50

T1 sequence (Q00975 whole entry): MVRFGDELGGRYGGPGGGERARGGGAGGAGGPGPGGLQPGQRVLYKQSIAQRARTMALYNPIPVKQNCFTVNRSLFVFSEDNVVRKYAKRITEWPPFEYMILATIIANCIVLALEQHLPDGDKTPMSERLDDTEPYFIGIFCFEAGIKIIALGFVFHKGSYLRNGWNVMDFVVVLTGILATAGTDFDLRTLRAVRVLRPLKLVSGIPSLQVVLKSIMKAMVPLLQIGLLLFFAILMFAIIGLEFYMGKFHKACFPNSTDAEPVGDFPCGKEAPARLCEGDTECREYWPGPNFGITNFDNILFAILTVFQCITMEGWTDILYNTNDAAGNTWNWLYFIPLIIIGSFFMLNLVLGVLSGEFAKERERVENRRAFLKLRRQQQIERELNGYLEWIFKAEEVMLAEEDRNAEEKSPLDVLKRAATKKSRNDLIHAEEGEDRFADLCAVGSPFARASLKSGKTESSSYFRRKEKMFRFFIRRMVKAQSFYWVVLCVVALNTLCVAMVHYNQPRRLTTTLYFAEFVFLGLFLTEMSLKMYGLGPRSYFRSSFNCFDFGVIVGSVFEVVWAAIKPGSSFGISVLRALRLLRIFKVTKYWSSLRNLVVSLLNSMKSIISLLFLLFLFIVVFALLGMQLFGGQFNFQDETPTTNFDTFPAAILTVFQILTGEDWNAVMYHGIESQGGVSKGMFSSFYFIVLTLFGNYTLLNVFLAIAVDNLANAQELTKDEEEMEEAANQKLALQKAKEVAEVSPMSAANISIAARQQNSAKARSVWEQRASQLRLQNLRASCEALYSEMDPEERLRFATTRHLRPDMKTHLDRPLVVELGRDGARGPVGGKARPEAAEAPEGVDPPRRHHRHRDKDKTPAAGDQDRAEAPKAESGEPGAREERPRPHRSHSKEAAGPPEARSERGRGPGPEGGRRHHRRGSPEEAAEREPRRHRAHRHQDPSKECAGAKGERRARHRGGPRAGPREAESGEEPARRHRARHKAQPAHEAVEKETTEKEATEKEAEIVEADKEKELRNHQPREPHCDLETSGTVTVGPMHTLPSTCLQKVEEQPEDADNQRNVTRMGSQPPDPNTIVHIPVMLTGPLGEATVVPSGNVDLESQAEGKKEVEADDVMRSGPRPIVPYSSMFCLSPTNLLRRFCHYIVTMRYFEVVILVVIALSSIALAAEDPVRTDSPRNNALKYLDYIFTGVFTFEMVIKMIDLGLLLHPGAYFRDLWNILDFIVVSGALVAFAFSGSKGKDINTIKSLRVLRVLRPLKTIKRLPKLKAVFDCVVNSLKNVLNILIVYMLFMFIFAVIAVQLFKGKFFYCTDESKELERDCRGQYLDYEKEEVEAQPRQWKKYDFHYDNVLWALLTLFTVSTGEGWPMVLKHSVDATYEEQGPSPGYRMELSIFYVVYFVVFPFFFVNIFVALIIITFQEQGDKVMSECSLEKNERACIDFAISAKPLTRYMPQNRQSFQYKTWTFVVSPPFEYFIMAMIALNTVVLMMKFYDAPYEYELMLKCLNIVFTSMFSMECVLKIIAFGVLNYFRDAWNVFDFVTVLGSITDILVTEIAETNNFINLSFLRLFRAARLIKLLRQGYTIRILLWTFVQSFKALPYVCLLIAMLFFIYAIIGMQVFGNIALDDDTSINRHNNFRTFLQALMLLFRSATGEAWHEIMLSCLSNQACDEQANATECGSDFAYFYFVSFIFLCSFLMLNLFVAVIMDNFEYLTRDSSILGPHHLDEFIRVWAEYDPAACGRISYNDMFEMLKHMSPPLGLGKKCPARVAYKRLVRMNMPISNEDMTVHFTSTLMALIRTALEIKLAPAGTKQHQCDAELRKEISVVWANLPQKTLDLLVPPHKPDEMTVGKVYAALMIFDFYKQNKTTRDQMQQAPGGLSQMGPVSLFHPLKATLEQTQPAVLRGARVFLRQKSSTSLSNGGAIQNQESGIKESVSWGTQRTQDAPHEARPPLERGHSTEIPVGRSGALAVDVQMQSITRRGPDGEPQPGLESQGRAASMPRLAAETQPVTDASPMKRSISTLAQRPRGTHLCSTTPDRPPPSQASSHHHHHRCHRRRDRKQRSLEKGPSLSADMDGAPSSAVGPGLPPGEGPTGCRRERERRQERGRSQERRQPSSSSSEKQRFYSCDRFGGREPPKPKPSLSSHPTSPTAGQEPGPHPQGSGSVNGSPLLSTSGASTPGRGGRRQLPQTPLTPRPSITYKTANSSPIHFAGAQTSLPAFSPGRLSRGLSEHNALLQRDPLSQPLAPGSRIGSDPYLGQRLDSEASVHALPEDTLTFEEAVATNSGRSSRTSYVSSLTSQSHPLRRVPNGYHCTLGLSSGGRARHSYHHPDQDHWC
T1 sequence (P54284 whole entry partner): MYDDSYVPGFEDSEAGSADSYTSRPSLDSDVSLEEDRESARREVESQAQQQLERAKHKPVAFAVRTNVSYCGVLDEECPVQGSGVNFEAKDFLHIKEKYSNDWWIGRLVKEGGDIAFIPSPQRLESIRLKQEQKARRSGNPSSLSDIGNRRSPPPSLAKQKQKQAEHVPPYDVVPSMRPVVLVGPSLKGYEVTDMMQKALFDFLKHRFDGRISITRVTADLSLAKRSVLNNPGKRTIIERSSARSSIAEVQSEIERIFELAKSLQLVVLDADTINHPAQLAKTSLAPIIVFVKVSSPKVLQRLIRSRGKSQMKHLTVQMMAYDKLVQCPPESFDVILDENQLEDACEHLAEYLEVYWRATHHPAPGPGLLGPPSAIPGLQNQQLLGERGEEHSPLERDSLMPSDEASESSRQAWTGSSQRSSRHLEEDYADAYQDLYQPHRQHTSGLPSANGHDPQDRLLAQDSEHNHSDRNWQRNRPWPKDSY
T1 sequence (P54289 25-956 partner limits assumed): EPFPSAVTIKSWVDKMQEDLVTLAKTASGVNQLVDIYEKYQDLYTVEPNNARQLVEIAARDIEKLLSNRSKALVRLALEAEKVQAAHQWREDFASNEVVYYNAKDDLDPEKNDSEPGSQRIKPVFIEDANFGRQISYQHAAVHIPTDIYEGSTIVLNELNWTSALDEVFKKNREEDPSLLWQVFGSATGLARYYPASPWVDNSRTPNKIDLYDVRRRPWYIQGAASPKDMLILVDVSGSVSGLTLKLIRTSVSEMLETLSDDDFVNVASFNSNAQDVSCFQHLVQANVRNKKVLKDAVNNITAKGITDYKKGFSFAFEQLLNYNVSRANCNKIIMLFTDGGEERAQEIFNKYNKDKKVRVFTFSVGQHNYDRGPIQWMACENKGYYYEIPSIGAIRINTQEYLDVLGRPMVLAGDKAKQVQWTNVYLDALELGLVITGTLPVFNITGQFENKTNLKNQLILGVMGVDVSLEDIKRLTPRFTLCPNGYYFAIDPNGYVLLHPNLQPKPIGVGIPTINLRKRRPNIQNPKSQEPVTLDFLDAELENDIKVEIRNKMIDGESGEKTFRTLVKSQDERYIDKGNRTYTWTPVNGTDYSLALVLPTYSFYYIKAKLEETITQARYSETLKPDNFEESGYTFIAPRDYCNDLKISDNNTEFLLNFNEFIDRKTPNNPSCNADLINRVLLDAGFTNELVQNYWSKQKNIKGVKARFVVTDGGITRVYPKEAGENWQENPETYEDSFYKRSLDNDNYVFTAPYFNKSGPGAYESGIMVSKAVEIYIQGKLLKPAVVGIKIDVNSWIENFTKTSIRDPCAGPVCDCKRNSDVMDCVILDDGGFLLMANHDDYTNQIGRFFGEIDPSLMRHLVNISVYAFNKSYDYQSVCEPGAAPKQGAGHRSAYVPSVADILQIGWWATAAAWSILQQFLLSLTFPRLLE
T1 sequence (P54289 957-1103 partner limits assumed): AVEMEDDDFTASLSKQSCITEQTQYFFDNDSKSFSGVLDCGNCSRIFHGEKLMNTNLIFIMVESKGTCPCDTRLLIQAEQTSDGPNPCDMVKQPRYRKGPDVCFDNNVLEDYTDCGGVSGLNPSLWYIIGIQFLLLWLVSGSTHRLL

Row | SMILES | logIC50 (human Cav2.2 channels [2]; [4]) | IC50 (human Cav2.2 channels [2]; [5]) | inhibition at 300 µM (human Cav2.2 channels [2]) | extent of inhibition of KCl-induced Ca2+ responses (human Cav2.2 channels [2]; SH-SY5Y cells) | other results
1 | O=C(CC(c1ccccc1)c1ccccc1)N1CCN(C(c2ccccc2)c2ccccc2)CC1 [Z160] |  |  |  |  | outcome of Phase II clinical studies [1]: failed to meet the primary endpoint
2 | Cl.N=C(N)NCCCOc1ccc(C(=O)Nc2cccc(Oc3ccc(F)cc3)c2)cc1 [6b, N-(3-(4-Fluorophenoxy)phenyl)-4-(3-guanidinopropoxy)benzamide hydrochloride] | –3.73 | 185 µM |  |  | 
3 | Cl.N=C(N)NCCCOc1ccc(C(=O)Nc2ccccc2Oc2ccc(F)cc2)cc1 [6a, N-(2-(4-Fluorophenoxy)phenyl)-4-(3-guanidinopropoxy)benzamide hydrochloride] | –3.90 |  | 65% |  | IC50 (human Cav2.2 channels [3]): 36.3 ± 2.4 µM
4 | N=C(N)NCCCCCCCC(=O)Nc1ccc(OCCCNC(=N)N)cc1C(=O)Nc1ccc(Oc2ccc(F)cc2)cc1 [compound 3, reference compound] |  |  | 15% |  | extent of inhibition of Ca2+ responses at 1 mM (human Cav2.2 channels [2]): only partially inhibited responses; logIC50 (human Cav2.2 channels [2]): ~–2.84; IC50 (human Cav2.2 channels [2]; IC50): ~1450 µM and 1450 µM; activity in radioligand-displacement assay (in words) (N-type channel): most potent fluorinated analogue
5 | NCCCOc1ccc(C(=O)Nc2ccccc2Oc2ccc(F)cc2)cc1 [5a, 4-(3-Aminopropoxy)-N-(2-(4-fluorophenoxy)phenyl)benzamide] | –4.34 | 46 µM |  | fully blocked | 
6 | NCCCCCCCC(=O)Nc1ccc(OCCCN)cc1C(=O)Nc1ccc(Oc2ccc(F)cc2)cc1 [compound 4] |  |  |  |  | activity in radioligand-displacement assay (in words) (N-type channel): comparatively weak activity
7 | NCCCOc1ccc(C(=O)Nc2cccc(Oc3ccc(F)cc3)c2)cc1 [5b, 4-(3-Aminopropoxy)-N-(3-(4-fluorophenoxy)phenyl)benzamide] | –4.45 | 35 µM |  | fully blocked | 
8 | Cl.N=C(N)NCCCOc1ccc(C(=O)Nc2ccc(Oc3ccc(F)cc3)cc2)cc1 [6c, N-(4-(4-Fluorophenoxy)phenyl)-4-(3-guanidinopropoxy)benzamide hydrochloride] | –3.14 | 723 µM | 19% | partially inhibited responses | 
9 | NCCCOc1ccc(C(=O)Nc2ccc(Oc3ccc(F)cc3)cc2)cc1 [5c, 4-(3-Aminopropoxy)-N-(4-(4-fluorophenoxy)phenyl)benzamide] | ~–3.12 | 764 µM | 30% | partially inhibited responses | 
